The data set in a line: Solubility of the product in water (stirred with water, aqueous phase analysed by HPLC). The settings on record: for content of the product in the aqueous phase (solubility in water): HPLC; for water-solubility, overall rating in words: summary statement. The class given is physicochemical. The protocol: The solubility of the product in water was determined as follows:
The product was stirred with water for three days at room temperature and the composition of the aqueous phase obtained in this way was determined using HPLC. The aqueous phase contained 6.7 wt % of the product.
A further sample of the product was stirred with water for three hours at 80° C. and cooled back to room temperature. The composition of the aqueous phase obtained in this way was subsequently determined using HPLC. The aqueous phase contained more than 10 wt % of the product.
The product was stirred with water for two days at room temperature and the composition of the aqueous phase obtained in this way was determined using HPLC. The aqueous phase contained 6.2 wt % of the product.
A further sample of the product was stirred with water for one hour at 60° C. and cooled back to room temperature. The composition of the aqueous phase obtained in this way was subsequently determined using HPLC. The aqueous phase contained 8.1 wt % of the product.
The product was stirred with water for three days at room temperature and the composition of the aqueous phase obtained in this way was determined using HPLC.
A further sample of the product was stirred with water for three hours at 80° C. and cooled to room temperature. The composition of the aqueous phase obtained in this way was subsequently determined using HPLC.

[1] abbreviates: stirred with water for three days at room temperature.
[2] abbreviates: stirred with water for three hours at 80° C. and cooled back to room temperature.

These results are taken from patent US20210332005A1, “CH-ACIDIC M[…] FOR THE PREPARATION OF AQUEOUS POLYMER DISPERSIONS” (EVONIK OPERATIONS GMBH, priority 2018, published 2021).

Regarding `C=C(C)C(=O)NCCCCCCNC(=O)CC#N` [Comparative Example 3, N-(2-cyanoethylamidohexyl)methacrylamide, reference compound], the “water-solubility, overall rating in words” value (“water-solubility … in words” for short) was “very low water-solubility”. For the same compound, the “content of the product in the aqueous phase (solubility in water)” value (“content of the product” for short) under setting [1] was “virtually insoluble in water”. In addition, under setting [2], the “content of the product” value is “virtually insoluble in water”.
With `C=C(C)C(=O)NCCCCNC(=O)CC#N` [Example 5, N-(2-cyanoethylamidobutyl)methacrylamide], the “water-solubility … in words” value is “high water-solubility”. For the same compound, for the setting “stirred with water for one hour at 60° C. and cooled back to room temperature”, the “content of the product” value was 8.1 wt %. For the same compound, for the setting “stirred with water for two days at room temperature”, the “content of the product” value is given as 6.2 wt %.
As for `C=C(C)C(=O)NCCNC(=O)CC#N` [Example 3, N-(2-cyanoethylamidoethyl)methacrylamide], the “water-solubility … in words” value was “high water-solubility”. Moreover, under setting [1], the “content of the product” value came out at 6.7 wt %. In addition, the “content of the product” value under setting [2] was “more than 10 wt %”.
